SMILES strings stand for the structures.

The target in one data set is T1, SGNH hydrolase-type esterase domain-containing protein (Phocaeicola dorei, UniProt B6W1J1).
T1 sequence (B6W1J1 whole entry): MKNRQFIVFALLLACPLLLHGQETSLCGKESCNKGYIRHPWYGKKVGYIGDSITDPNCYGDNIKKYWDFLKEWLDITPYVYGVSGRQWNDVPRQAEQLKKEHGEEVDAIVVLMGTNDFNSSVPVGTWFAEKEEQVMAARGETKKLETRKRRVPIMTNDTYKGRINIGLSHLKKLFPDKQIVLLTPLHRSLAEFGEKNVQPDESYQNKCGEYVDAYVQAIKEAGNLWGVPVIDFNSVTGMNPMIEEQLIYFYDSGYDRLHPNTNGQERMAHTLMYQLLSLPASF
Briefly: (§1) The drug is tested on Bacteroides dorei strain: DSM17855 for biotransformation. The drug concentrations were measured before and after a 12-h incubation by liquid-chromatography-coupled mass spectrometry (LC–MS). Format: ADME. Details: dose 2 uM. The settings on record: 2 µM.
In the case of `Nc1ccc(/N=N/c2ccccc2)c(N)n1` [PHENAZOPYRIDINE], the “Bacterial Biotransformation” value is reported as “Compound NOT metabolized”.

For the molecule `CCN(CC)C(=O)/C(C#N)=C/c1cc(O)c(O)c([N+](=O)[O-])c1` [ENTACAPONE], the “Bacterial Biotransformation” value was “Compound NOT metabolized”.

The target of another data set is T2, Steroid 5-alpha reductase C-terminal domain-containing protein (Phocaeicola dorei, UniProt B6W0N3).
T2 sequence (B6W0N3 whole entry): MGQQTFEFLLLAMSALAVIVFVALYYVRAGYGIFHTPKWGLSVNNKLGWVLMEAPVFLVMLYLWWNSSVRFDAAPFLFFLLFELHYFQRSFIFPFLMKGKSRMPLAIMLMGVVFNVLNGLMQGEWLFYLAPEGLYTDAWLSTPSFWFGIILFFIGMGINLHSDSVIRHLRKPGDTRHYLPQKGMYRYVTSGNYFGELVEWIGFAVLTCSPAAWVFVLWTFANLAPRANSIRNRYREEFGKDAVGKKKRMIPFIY
The description is as §1. Format: ADME. Set-up: dose 2 uM. The settings on record: 2 µM.
Take `CC(=O)OCC(=O)[C@@]12N=C(C)O[C@@H]1C[C@H]1[C@@H]3CCC4=CC(=O)C=C[C@]4(C)[C@H]3[C@@H](O)C[C@@]12C` [DEFLAZACORT]: the “Bacterial Biotransformation” value was “Compound NOT metabolized”.

In the case of `Nc1ccc(/N=N/c2ccccc2)c(N)n1` [PHENAZOPYRIDINE], the “Bacterial Biotransformation” value is listed as “Compound NOT metabolized”.

For the molecule `CCN(CC)C(=O)/C(C#N)=C/c1cc(O)c(O)c([N+](=O)[O-])c1` [ENTACAPONE], the “Bacterial Biotransformation” value is reported as “Compound NOT metabolized”.

A further data set concerns the target T3, Lipoprotein (Bacteroides thetaiotaomicron, UniProt Q8A343).
T3 sequence (Q8A343 whole entry): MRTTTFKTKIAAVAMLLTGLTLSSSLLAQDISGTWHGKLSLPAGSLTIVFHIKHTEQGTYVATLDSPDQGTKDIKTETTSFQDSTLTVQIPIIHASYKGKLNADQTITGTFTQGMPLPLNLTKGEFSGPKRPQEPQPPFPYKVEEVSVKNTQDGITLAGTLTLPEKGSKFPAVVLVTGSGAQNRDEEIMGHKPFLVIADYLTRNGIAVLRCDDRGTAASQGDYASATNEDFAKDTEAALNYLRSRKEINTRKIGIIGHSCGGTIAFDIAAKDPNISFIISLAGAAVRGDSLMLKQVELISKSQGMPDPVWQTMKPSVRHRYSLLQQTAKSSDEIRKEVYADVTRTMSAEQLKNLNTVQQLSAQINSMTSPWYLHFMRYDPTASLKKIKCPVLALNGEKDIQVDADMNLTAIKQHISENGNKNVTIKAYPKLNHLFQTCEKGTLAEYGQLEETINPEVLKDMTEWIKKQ
Put plainly: (§2) The drug is tested on Bacteroides thetaiotaomicron strain: VPI-5482 for biotransformation. The drug concentrations were measured before and after a 12-h incubation by liquid-chromatography-coupled mass spectrometry (LC–MS). It is filed as ADME. Details: dose 2 uM. The settings on record: 2 µM.
With `CC(=O)OCC(=O)[C@@]12N=C(C)O[C@@H]1C[C@H]1[C@@H]3CCC4=CC(=O)C=C[C@]4(C)[C@H]3[C@@H](O)C[C@@]12C` [DEFLAZACORT], the “Bacterial Biotransformation” value was “Compound NOT metabolized”.

For the molecule `Nc1ccc(/N=N/c2ccccc2)c(N)n1` [PHENAZOPYRIDINE], the “Bacterial Biotransformation” value is “Compound NOT metabolized”.

In the case of `CCN(CC)C(=O)/C(C#N)=C/c1cc(O)c(O)c([N+](=O)[O-])c1` [ENTACAPONE], the “Bacterial Biotransformation” value was “Compound NOT metabolized”.

In another data set the target is T4, Acylhydrolase (Bacteroides thetaiotaomicron, UniProt Q8AA96).
T4 sequence (Q8AA96 whole entry): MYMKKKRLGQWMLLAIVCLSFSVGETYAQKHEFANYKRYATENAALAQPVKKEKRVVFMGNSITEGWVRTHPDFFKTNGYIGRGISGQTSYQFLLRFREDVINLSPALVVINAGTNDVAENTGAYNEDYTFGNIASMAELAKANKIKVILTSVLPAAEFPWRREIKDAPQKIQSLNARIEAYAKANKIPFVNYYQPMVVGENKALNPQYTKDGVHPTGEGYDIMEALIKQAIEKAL
Described as §2. Format: ADME. Details: dose 2 uM. The settings on record: 2 µM.
With `CC(=O)OCC(=O)[C@@]12N=C(C)O[C@@H]1C[C@H]1[C@@H]3CCC4=CC(=O)C=C[C@]4(C)[C@H]3[C@@H](O)C[C@@]12C` [DEFLAZACORT], the “Bacterial Biotransformation” value is “Compound metabolized”.

In the case of `Nc1ccc(/N=N/c2ccccc2)c(N)n1` [PHENAZOPYRIDINE], the “Bacterial Biotransformation” value was “Compound NOT metabolized”.

As to `CCN(CC)C(=O)/C(C#N)=C/c1cc(O)c(O)c([N+](=O)[O-])c1` [ENTACAPONE], the “Bacterial Biotransformation” value is on record as “Compound NOT metabolized”.

In another data set the target is T5, Xylanase (Bacteroides thetaiotaomicron, UniProt Q8A8H5).
T5 sequence (Q8A8H5 whole entry): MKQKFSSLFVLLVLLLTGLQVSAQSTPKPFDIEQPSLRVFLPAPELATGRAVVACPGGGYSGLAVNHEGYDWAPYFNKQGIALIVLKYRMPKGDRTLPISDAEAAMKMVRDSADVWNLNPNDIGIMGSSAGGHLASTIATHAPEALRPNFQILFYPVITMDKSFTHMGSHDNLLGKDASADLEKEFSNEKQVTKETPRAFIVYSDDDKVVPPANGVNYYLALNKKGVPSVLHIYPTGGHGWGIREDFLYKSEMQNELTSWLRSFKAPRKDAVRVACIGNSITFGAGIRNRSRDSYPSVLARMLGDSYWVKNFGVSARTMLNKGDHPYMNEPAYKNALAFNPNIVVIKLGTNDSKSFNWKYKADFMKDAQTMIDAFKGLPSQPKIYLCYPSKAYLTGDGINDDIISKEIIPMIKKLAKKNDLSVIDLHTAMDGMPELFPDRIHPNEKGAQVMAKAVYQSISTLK
The description is as §2. Details: dose 2 uM. The settings on record: 2 µM. It is filed as ADME.
As for `CC(=O)OCC(=O)[C@@]12N=C(C)O[C@@H]1C[C@H]1[C@@H]3CCC4=CC(=O)C=C[C@]4(C)[C@H]3[C@@H](O)C[C@@]12C` [DEFLAZACORT], the “Bacterial Biotransformation” value is recorded as “Compound NOT metabolized”.

As for `Nc1ccc(/N=N/c2ccccc2)c(N)n1` [PHENAZOPYRIDINE], the “Bacterial Biotransformation” value was “Compound NOT metabolized”.

On to `CCN(CC)C(=O)/C(C#N)=C/c1cc(O)c(O)c([N+](=O)[O-])c1` [ENTACAPONE], for which the “Bacterial Biotransformation” value is reported as “Compound NOT metabolized”.

In a further data set the target is T6, Lipolytic enzyme, G-D-S-L family (Bacteroides thetaiotaomicron, UniProt Q8A0C5).
T6 sequence (Q8A0C5 whole entry): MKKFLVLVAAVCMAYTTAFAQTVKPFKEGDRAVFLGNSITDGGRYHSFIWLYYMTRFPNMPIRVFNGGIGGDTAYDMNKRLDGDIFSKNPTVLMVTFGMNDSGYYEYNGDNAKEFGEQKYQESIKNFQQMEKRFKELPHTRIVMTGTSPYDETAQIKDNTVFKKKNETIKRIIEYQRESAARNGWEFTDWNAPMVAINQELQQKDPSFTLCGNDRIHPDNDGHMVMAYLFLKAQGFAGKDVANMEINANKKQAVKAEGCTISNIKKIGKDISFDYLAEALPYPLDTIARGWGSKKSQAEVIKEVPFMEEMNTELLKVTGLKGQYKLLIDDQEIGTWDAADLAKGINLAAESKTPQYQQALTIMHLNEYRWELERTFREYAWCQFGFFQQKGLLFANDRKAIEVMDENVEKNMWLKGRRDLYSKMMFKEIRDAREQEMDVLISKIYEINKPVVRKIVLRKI
Described as §2. It is filed as ADME. Details: dose 2 uM. The settings on record: 2 µM.
With `CC(=O)OCC(=O)[C@@]12N=C(C)O[C@@H]1C[C@H]1[C@@H]3CCC4=CC(=O)C=C[C@]4(C)[C@H]3[C@@H](O)C[C@@]12C` [DEFLAZACORT], the “Bacterial Biotransformation” value is “Compound metabolized”.

For the molecule `Nc1ccc(/N=N/c2ccccc2)c(N)n1` [PHENAZOPYRIDINE], the “Bacterial Biotransformation” value is reported as “Compound NOT metabolized”.

`CCN(CC)C(=O)/C(C#N)=C/c1cc(O)c(O)c([N+](=O)[O-])c1` [ENTACAPONE]: the “Bacterial Biotransformation” value is on record as “Compound NOT metabolized”.

The target in another data set is T7, NADH dehydrogenase/NAD(P)H nitroreductase (Bacteroides thetaiotaomicron, UniProt Q8A8L9).
T7 sequence (Q8A8L9 whole entry): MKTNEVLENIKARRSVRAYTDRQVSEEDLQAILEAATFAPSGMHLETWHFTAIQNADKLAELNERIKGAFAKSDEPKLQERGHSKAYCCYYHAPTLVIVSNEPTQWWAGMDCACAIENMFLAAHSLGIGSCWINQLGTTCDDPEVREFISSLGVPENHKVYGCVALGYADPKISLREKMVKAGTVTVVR
The data set is described as §2. The following applies: 2 µM. Set-up: dose 2 uM. Format: ADME.
Take `CC(=O)OCC(=O)[C@@]12N=C(C)O[C@@H]1C[C@H]1[C@@H]3CCC4=CC(=O)C=C[C@]4(C)[C@H]3[C@@H](O)C[C@@]12C` [DEFLAZACORT]: the “Bacterial Biotransformation” value is “Compound NOT metabolized”.

Take `Nc1ccc(/N=N/c2ccccc2)c(N)n1` [PHENAZOPYRIDINE]: the “Bacterial Biotransformation” value is recorded as “Compound NOT metabolized”.

Consider `CCN(CC)C(=O)/C(C#N)=C/c1cc(O)c(O)c([N+](=O)[O-])c1` [ENTACAPONE], for which the “Bacterial Biotransformation” value is on record as “Compound metabolized”.

For a further data set, the target named is T8, Nitroreductase-like protein (Bacteroides thetaiotaomicron, UniProt Q8AB93).
T8 sequence (Q8AB93 whole entry): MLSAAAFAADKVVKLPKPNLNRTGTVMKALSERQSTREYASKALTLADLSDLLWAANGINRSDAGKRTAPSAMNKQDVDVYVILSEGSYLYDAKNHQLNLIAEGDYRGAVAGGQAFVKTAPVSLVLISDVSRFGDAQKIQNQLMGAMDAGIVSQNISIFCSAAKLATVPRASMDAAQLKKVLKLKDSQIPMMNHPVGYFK
The description is as §2. Details: dose 2 uM. The following applies: 2 µM. Format: ADME.
Turning to `CC(=O)OCC(=O)[C@@]12N=C(C)O[C@@H]1C[C@H]1[C@@H]3CCC4=CC(=O)C=C[C@]4(C)[C@H]3[C@@H](O)C[C@@]12C` [DEFLAZACORT], the “Bacterial Biotransformation” value is reported as “Compound NOT metabolized”.

Turning to `Nc1ccc(/N=N/c2ccccc2)c(N)n1` [PHENAZOPYRIDINE], the “Bacterial Biotransformation” value is recorded as “Compound NOT metabolized”.

Consider `CCN(CC)C(=O)/C(C#N)=C/c1cc(O)c(O)c([N+](=O)[O-])c1` [ENTACAPONE], for which the “Bacterial Biotransformation” value is “Compound metabolized”.

These data come from ChEMBL document CHEMBL5303573, “Mapping human microbiome drug metabolism by gut bacteria and their genes” (Nature, 2019).
